The record followed here is patent US20260183302A1, “PDK1 REGULATORY COMPOUND AND COMPOSITION CONTAINING THE SAME” (PROVIBIO CO., LTD., priority 2024, published 2026).

Data set [1] has as its system Human B Lymphocyte cell line, SU-DHL-8. Put plainly: Relative cell viability, SU-DHL-8 (CCK-8). The class given is cell-based. Conditions: 48 hours, untreated (DMSO) = 100%. The gist of the method: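 Cells grown in RPMI-1640 with 10% FBS, treated with compound at several concentrations, then given CCK-8 for 4 h at 37° C. Viability expressed as percent of DMSO-treated cells.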

In data set [2] the target is T1, PDK1 (Homo sapiens, UniProt O15530).
T1 construct: purchased Promega V9681
T1 sequence (O15530 1-556): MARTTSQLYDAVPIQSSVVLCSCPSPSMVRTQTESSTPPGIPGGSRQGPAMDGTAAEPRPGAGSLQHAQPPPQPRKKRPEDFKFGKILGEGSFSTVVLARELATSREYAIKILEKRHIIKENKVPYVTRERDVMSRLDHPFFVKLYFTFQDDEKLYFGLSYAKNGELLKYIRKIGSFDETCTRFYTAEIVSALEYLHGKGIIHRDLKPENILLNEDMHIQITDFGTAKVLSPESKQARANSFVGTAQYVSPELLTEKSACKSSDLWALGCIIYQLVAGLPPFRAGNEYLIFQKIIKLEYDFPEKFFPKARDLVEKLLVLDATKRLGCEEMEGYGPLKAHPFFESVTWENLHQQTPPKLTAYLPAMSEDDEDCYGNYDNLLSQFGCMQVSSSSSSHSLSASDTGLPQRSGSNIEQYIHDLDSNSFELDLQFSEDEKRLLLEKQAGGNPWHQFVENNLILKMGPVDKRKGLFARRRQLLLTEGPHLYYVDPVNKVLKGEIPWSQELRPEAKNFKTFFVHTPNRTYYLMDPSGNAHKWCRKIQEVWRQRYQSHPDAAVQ
Kind of data set: IC50 for inhibiting PDK1 kinase activity. The class given is biochemical. As for the experimental part:
Additionally, enzyme kinetics analysis was performed to quantitatively analyze the effect of the compounds of the present invention on the enzymatic activity of PDK1 (3-Phosphoinositide-dependent protein kinase-1) and to confirm the inhibition pattern.
Prior to the analysis, the half-maximal inhibitory concentration (IC50) values of the compounds GO15F, GO86, and GO88 of the present invention for inhibiting PDK1 kinase activity were determined, and the results are shown in FIG. 4.

The subject of data set [3] is skin graft (BALB/c donor to C57BL/6 recipient). Kind of data set: In vivo skin graft immune suppression model. Conditions: 0.15 mg/kg twice daily. Also noted: species or system C57BL/6 mice. As for the experimental part: To evaluate the immune-suppressive effects of the compounds according to the present invention, a skin graft animal model was established, and the efficacy of the compounds was analyzed in the model.
First, female BALB/c mice aged 7 weeks and weighing approximately 20 g were used as donor animals, and female C57BL/6 mice of the same age and weight were used as recipient animals. All experimental animals were supplied by HanabioTech Co., Ltd.
Prior to the experiment, the animals were acclimatized in SPF-certified facilities for one week and then used in the experiment. The housing conditions were maintained at a temperature of 22±2° C., relative humidity of 55+10%, and a 12-hour light-dark cycle.
To establish the skin graft model, a anesthetic solution consisting of ketamine, […], and PBS in a volume ratio of 1:1:3 was administered intraperitoneally to C57BL/6 mice to induce anesthesia.
The hair on the dorsal side of the anesthetized mice was removed and disinfected, followed by excision of the full-thickness skin using an 8 mm punch. Subsequently, skin of the same size was harvested from donor mice (BALB/c) and transplanted. […]
Subsequently, the proportions of CD3- and B220-positive cells were analyzed using a flow cytometer.

What is called IC50 is the concentration that gives 50% inhibition. Low values mean inhibition by little substance, high ones a need for much substance. Take “12-[4-(2,2-dimethylmorpholin-4-yl)]dodecyl-N-(6-aminopurine-2-yl) carboxamide [Compound 11]”: the “Relative cell viability (%)” value in data set [1] (SU-DHL-8, 1 μM) was 7.63%; in data set [1] (SU-DHL-8, 10 μM), 6.09%; in data set [1] (SU-DHL-8, 30 μM), 4.82%; in data set [1] (SU-DHL-8, 50 μM), 3.29%. The IC50 in data set [2] was 11.3 nM.
Take `Nc1ncccc1C(=O)NCCCCCCCCCCCCN1CCNCC1` [Compound 14, 2-Amino-N-(12-(piperazin-1-yl)dodecyl)nicotinamide]: the results for the “animals with graft pinkening and good blood flow” value in data set [3] (day 10 post-transplantation) and in data set [3] (day 15 post-transplantation) were “three out of five” and “one out of five”, respectively.
